Data on five molecules can be found in paper PMC11986180, “ZIF-8 Selective Dispersive Solid-Phase Extraction-LC-MS/MS Method for the Determination of Aconitine alkaloids in Rat Plasma: Application in Pharmacokinetic Studies” (Journal of Analytical Methods in Chemistry, 2025).

Like-named read-outs stand apart in the source and are kept apart here.

Data set [1] is classed as physicochemical, rat. As for the experimental part: Aconitine, hypaconitine, mesaconitine, lappaconitine, benzoylaconitine, and yohimbine were individually dissolved in 10 mL of methanol to prepare the stock solution. These compounds were subsequently diluted with methanol to achieve final concentrations of 10 and 5.0 μg/mL to prepare the working standard solutions, which were stored at 4°C before use. Under the optimized conditions, 10 μL of the working standard solution and IS (5.0 μg/mL), along with 15 mg of ZIF-8, was added to 200 μL of blank rat plasma and various blank tissue homogenates. The final concentrations of the calibration standard samples were 0.3125, 0.625, 1.5625, 3.125, 6.25, 12.5, 25, 50, 100, 500, and 1000 ng/mL. Plasma quality control (QC) samples were prepared at concentrations of 0.625, 6.25, 10, and 50 ng/mL. Standard calibration samples and HPLC–MS samples were stored at −20°C until analysis.
Stability tests were conducted to replicate real-world conditions that samples are likely to encounter. […]

Data set [2] in a line: Pharmacokinetics of aconitine alkaloids in rat plasma after oral administration of Fuzi extract (d-SPE-LC-MS/MS). Format: in vivo, Sprague–Dawley rats. The conditions noted are these: for AUC(0-inf) / AUC(0-t) / half-life / MRT last / MRT inf / Tmax: n = 6, oral (gastric gavage) 10 mg/kg Fuzi extract; for half-life: one-compartment model; for MRT last: read-out: MRT0-t; for MRT inf: read-out: MRT0-∞; for Cmax: oral 10 mg/kg Fuzi extract, read-out: maximum concentrations (Cmax); for Tmax: 10 mg/kg. As for the experimental part:
Male Sprague–Dawley rats (250–300 g, 8–10 weeks old) were procured from Shenzhen Bao'an Authentic TCM Therapy Hospital (Guangzhou, China) and acclimatized in a controlled environment (temperature: 25°C ± 2°C; humidity: 50% ± 5%; 12-h dark–light cycle) for at least 3 days before experimentation (Animal License Number: SCXK [Guangdong] 2022-0002). Laboratory animal compound feed (Guangdong Feeding Certificate: 2019, No. 05,073) was provided. All animal experiments were performed in accordance with the Guide for the Care and Use of Laboratory Animals by the National Institutes of Health. Ethical approval for the animal studies was obtained from the Ethics Committee of Sinopharm Dongfeng General Hospital. The animal protocols used in this study were approved by the Institutional Animal Care and Use Committee of Sinopharm Dongfeng General Hospital.
The crude powder of Fuzi (50 g) was decocted in 500 mL of water for 1 h to obtain the crude extract, which was then concentrated to 100 mL and stored at 4°C.
All rats were maintained under standard conditions with ad libitum access to food and water. They were divided into two groups: Group 1 was used to prepare blank plasma samples, and Group 2 was designated for pharmacokinetic studies. Drug-free rat plasma was collected via suborbital venous hemorrhage. Pharmacokinetic studies involved continuous blood sampling from the suborbital venous plexus, as described previously. Each rat was administered a 10 mg/kg dose of Fuzi extract via gastric gavage. Blood samples (200 μL) were collected at […] time points (0, 0.25, 0.50, 0.75, 1.0, 2.0, 3.0, 4.0, 6.0, 8.0, 10, 12, and 24 h postadministration) for pharmacokinetic analysis. The samples were collected into microtubes containing 5 μL of heparin, followed by centrifugation at 4000 rpm for 10 min. The resulting plasma ([…]) was separated and immediately frozen at −20°C for further analysis. Figure 2 illustrates the typical d-SPE–LC/MS profile of blank plasma and aconitine alkaloids, showing distinct peaks in rat plasma at 1 h postadministration without interference from endogenous peaks, thus maintaining a stable baseline for analyte and IS detection.
Before solid-phase extraction, ZIF-8 was activated by placing it in a vacuum-drying oven at 60°C for 24 h to remove surface-adsorbed water and other volatile substances. Rat plasma (100 μL) was combined with 350 μL of a 50% acetonitrile–water solution and 50 μL of yohimbine (IS). Following this, 15 mg of ZIF-8 was added to the mixture, which was then shaken for 18 min for extraction. After centrifugation, the adsorbent remained in the tube while the supernatant was discarded. Subsequently, 1000 μL of methanol was added to the tube, and ultrasonic elution of the nanocomposite was performed for 5 min. After centrifugation to collect the ZIF-8 nanocomposites, 900 μL of the eluent was evaporated using N2 flow at 40°C. The resulting residue was redissolved in 50 μL of methanol to obtain the final sample solution and analyzed by HPLC–MS/MS. The extraction process for aconitine alkaloids is depicted in Figure 3.
The pharmacokinetic parameters of aconitine alkaloids in rats were calculated using Phoenix WinNonlin 8.3 software. The maximum plasma concentration (Cmax) and the time to reach Cmax (Tmax) were directly derived from the experimental data. The elimination rate constant (Ke) was determined by linear regression of the terminal semilogarithmic plot of plasma concentration versus time, and the elimination half-life (t1/2) was calculated as 0.693/Ke. All data are presented as mean ± standard deviation.
The plasma concentrations of five aconitine alkaloid species from Fuzi were quantified using the present method. The peak plasma concentrations of aconitine, hypaconitine, mesaconitine, lappaconitine, and benzoylaconitine were reached within 0.75 h, indicating rapid absorption into the systemic circulation. […]

Setting [3] is: Automatic (24 h), plasma QC 6.25 ng/mL.
The mark [4] stands for this setting: Automatic (24 h), plasma QC 50 ng/mL.
Setting [5] is: Freeze (−80°C for 30 d), plasma QC 6.25 ng/mL.
Where [6] appears, read: Freeze (−80°C for 30 d), plasma QC 50 ng/mL.
The mark [7] stands for this setting: Freeze-thaw (three times), plasma QC 6.25 ng/mL.
Setting [8] is: Freeze-thaw (three times), plasma QC 50 ng/mL.
Where [9] appears, read: Room temperature (8 h), plasma QC 6.25 ng/mL.
[10] abbreviates: Room temperature (8 h), plasma QC 50 ng/mL.
Setting [11] is: male, Sprague-Dawley, rat, plasma, po, read-out: Tmax.

In general, AUC(0-inf) refers to the area under the concentration-time curve extrapolated to infinity. One may read the AUC(0-t) as exposure summed from dosing to a finite time, without extrapolation to infinity. Read a high AUC(0-t) as more exposure. As usually defined, the half-life is the time in which the quantity being followed falls by half. A high value points to slow decline. The Tmax is the time at which the peak concentration occurs.

As to `COCC12CN(C)C3C4C(OC)C1C3(C(OC)CC2O)C1CC2(O)C(OC)C(O)C4(OC(C)=O)C1C2OC(=O)c1ccccc1` (stereo not shown) [Mesaconitine], the “Stability RE %” value in data set [1] (setting [3]) was −9.09%; in data set [1] (setting [4]), −9.89%; in data set [1] (setting [5]), −7.23%; in data set [1] (setting [6]), −9.46%; in data set [1] (setting [7]) it was −1.29%; in data set [1] (setting [8]) it was −7.50%. Also, the “Stability RE %” value is on record as 0.97% in data set [1] (setting [9]) and −12.74% in data set [1] (setting [10]). Also, in data set [2] (male, Sprague-Dawley), the AUC(0-inf) stood at 8.11 ± 0.46 ng·h/mL. This molecule yielded an AUC(0-t) in data set [2] (male, Sprague-Dawley) of 7.7 ± 0.411 ng·h/mL. This molecule also gave a half-life in data set [2] (male, Sprague-Dawley) of 321 ± 33.7 min. Besides, the MRT last in data set [2] (male, Sprague-Dawley) is 5.69 ± 0.188 h. Besides, in data set [2] (male, Sprague-Dawley), the MRT inf came out at 7.03 ± 0.479 h. For the same molecule, the Cmax in data set [2] (male, Sprague-Dawley) was 1.71 ± 0.0446 ng/mL. For the same molecule, the figures for the Tmax in data set [2] (setting [11]) and in data set [2] were at most 45 min and 45 min, respectively.

Take `CCN1CC2(COC)C(O)CC(OC)C34C5CC6(O)C(OC)C(O)C(O)(C5C6OC(=O)c5ccccc5)C(C(OC)C23)C14` (stereo not shown) [Benzoylaconitine]: the “Stability RE %” value in data set [1] (setting [3]) was −8.67%; in data set [1] (setting [4]), −9.65%; in data set [1] (setting [5]), −7.70%; in data set [1] (setting [6]), −10.48%; in data set [1] (setting [7]) it was −6.91%; in data set [1] (setting [8]), −10.57%. For the same molecule, the figures for the “Stability RE %” value in data set [1] (setting [9]) and in data set [1] (setting [10]) were −7.89% and −7.98%, respectively. Also, in data set [2] (male, Sprague-Dawley), the AUC(0-inf) is 14.1 ± 9.31 ng·h/mL. In data set [2] (male, Sprague-Dawley), the AUC(0-t) was found to be 3.76 ± 0.0401 ng·h/mL. Moreover, in data set [2] (male, Sprague-Dawley), the half-life was 3740 ± 3440 min. The MRT last in data set [2] (male, Sprague-Dawley) came out at 9.95 ± 0.374 h. The MRT inf in data set [2] (male, Sprague-Dawley) is 87.9 ± 79.7 h. In addition, the Cmax in data set [2] (male, Sprague-Dawley) was found to be 0.939 ± 0.199 ng/mL. In data set [2], the Tmax was determined as 15 min.

For the molecule `CCN1CC2(OC(=O)c3ccccc3NC(C)=O)CCC(OC)C34C1C(CC23)C1(O)CC(OC)C2CC4C1(O)C2OC` (stereo not shown) [Lappaconitine], the “Stability RE %” value in data set [1] (Automatic (24 h), plasma QC 3.125 ng/mL) is given as −0.82%; in data set [1] (Automatic (24 h), plasma QC 25 ng/mL), −7.41%; in data set [1] (Freeze (−80°C for 30 d), plasma QC 3.125 ng/mL), −0.68%; in data set [1] (Freeze (−80°C for 30 d), plasma QC 25 ng/mL) it was −9.65%; in data set [1] (Freeze-thaw (three times), plasma QC 3.125 ng/mL), −2.04%; in data set [1] (Freeze-thaw (three times), plasma QC 25 ng/mL), −10.40%. Further, the “Stability RE %” value in data set [1] (Room temperature (8 h), plasma QC 3.125 ng/mL) was −0.52%; in data set [1] (Room temperature (8 h), plasma QC 25 ng/mL), −6.67%. Further, the AUC(0-inf) in data set [2] (male, Sprague-Dawley) amounted to 2.421 ± 0.0223 ng·h/mL. Besides, the AUC(0-t) in data set [2] (male, Sprague-Dawley) is 2.4 ± 0.0276 ng·h/mL. This molecule also showed a half-life in data set [2] (male, Sprague-Dawley) of 230 ± 47.4 min. Also, the MRT last in data set [2] (male, Sprague-Dawley) stood at 4.47 ± 0.0814 h. Further, the MRT inf in data set [2] (male, Sprague-Dawley) amounted to 4.71 ± 0.206 h. The Cmax in data set [2] (male, Sprague-Dawley) is 1.28 ± 0.121 ng/mL. Moreover, the values for the Tmax in data set [2] (setting [11]) and in data set [2] were at most 45 min and 30 min, respectively.

With `COC[C@@]12CC[C@H](OC)[C@]34C(C([C@H](OC)[C@H]13)[C@]1(OC(C)=O)[C@H]3[C@@H](OC(=O)c5ccccc5)[C@](O)(C[C@H]34)[C@@H](OC)[C@@H]1O)N(C)C2` [Hypaconitine], the “Stability RE %” value in data set [1] (setting [3]) is −8.00%; in data set [1] (setting [4]), 1.32%; in data set [1] (setting [5]), −3.27%; in data set [1] (setting [6]), −2.50%; in data set [1] (setting [7]), 0.31%; in data set [1] (setting [8]) it was 3.47%. The “Stability RE %” value in data set [1] (setting [9]) is listed as −7.92%; in data set [1] (setting [10]), −7.90%. In addition, the AUC(0-inf) in data set [2] (male, Sprague-Dawley) is 80.5 ± 2.91 ng·h/mL. Besides, in data set [2] (male, Sprague-Dawley), the AUC(0-t) is 47.3 ± 1.33 ng·h/mL. In data set [2] (male, Sprague-Dawley), the half-life is 1270 ± 30.3 min. In addition, in data set [2] (male, Sprague-Dawley), the MRT last is 8.627 ± 0.0519 h. Also, the MRT inf in data set [2] (male, Sprague-Dawley) stood at 27.6 ± 0.562 h. Further, in data set [2] (male, Sprague-Dawley), the Cmax was determined as 9.92 ± 0.33 ng/mL. The time of peak concentration (Tmax) is at most 45 min in data set [2] (setting [11]) and 30 min in data set [2].

Take `CCN1C[C@]2(COC)[C@H](O)C[C@H](OC)[C@@]34[C@@H]5C[C@@]6(O)[C@H](OC(=O)c7ccccc7)[C@@H]5[C@@](OC(C)=O)([C@@H]([C@H](OC)[C@H]23)[C@@H]14)[C@@H](O)[C@@H]6OC` [Aconitine]: the “Stability RE %” value in data set [1] (setting [3]) is 4.19%; in data set [1] (setting [4]), −10.01%; in data set [1] (setting [5]), 4.94%; in data set [1] (setting [6]), −9.37%; in data set [1] (setting [7]), 3.96%; in data set [1] (setting [8]), −8.46%. Moreover, the “Stability RE %” value in data set [1] (setting [9]) was −1.08%; in data set [1] (setting [10]) it was −8.69%. In data set [2] (male, Sprague-Dawley), this molecule returned an AUC(0-inf) of 26.9 ± 0.696 ng·h/mL. The molecule further gave an area under the curve AUC(0-t) in data set [2] (male, Sprague-Dawley) of 25.3 ± 0.566 ng·h/mL. The molecule further showed a half-life in data set [2] (male, Sprague-Dawley) of 346 ± 20.9 min. The MRT last in data set [2] (male, Sprague-Dawley) worked out at 7.11 ± 0.143 h. The MRT inf in data set [2] (male, Sprague-Dawley) was 8.59 ± 0.349 h. For the same molecule, the Cmax in data set [2] (male, Sprague-Dawley) came out at 7.47 ± 0.732 ng/mL. The Tmax in data set [2] (setting [11]) is at most 45 min; in data set [2], 30 min.
